Where a SMILES comes first, the peptide text is derived from it. [ ]: non-standard residue; d: D form. The star is where a group is joined. Benzoyl(4-OPh) = O=C(c1ccc(Oc2ccccc2)cc1)*; Lys(Et2) = CCN(CC)CCCC[C@H](N)C(=O)O; d(aIle) = CC[C@H](C)[C@@H](N)C(=O)O; Gly(cPent) = N[C@H](C(=O)O)C1CCCC1; NH(propargyl) = C#CCN*

For data set [1], the target named is 5-hydroxytryptamine receptor 1B (Homo sapiens) (UniProt P28222). As to the kind of experiment: (§1) Selectivity interaction (SafetyScreen (Eurofins)) EUB0002332a HTR1B. Details: recommended concentration 1 uM. The following applies: at 10 µM.
In data set [2] the target is Voltage-gated inwardly rectifying potassium channel KCNH2 (Homo sapiens, UniProt Q12809). As to the kind of experiment: Selectivity interaction (SafetyScreen (Eurofins)) EUB0002332a KCNH2. On the set-up: recommended concentration 1 uM. To be noted: at 10 µM.
For data set [3], the target named is Sodium-dependent noradrenaline transporter (Homo sapiens) (UniProt P23975). Nature of the data set: Selectivity interaction (SafetyScreen (Eurofins)) EUB0002332a SLC6A2. On the set-up: recommended concentration 1 uM. The following applies: at 10 µM.
The target in data set [4] is Sodium-dependent dopamine transporter (Homo sapiens) (UniProt Q01959). Nature of the data set: Selectivity interaction (SafetyScreen (Eurofins)) EUB0002332a SLC6A3. Details: recommended concentration 1 uM. The following applies: at 10 µM.
For data set [5], the target named is 5-hydroxytryptamine receptor 1B (Homo sapiens) (UniProt P28222). Described as §1. The following applies: at 10 µM. On the set-up: recommended concentration 1 uM. The source holds these as a separate data set.
Data set [6] concerns the target Oxidized purine nucleoside triphosphate hydrolase (Homo sapiens) (UniProt P36639). As to the kind of experiment: Selectivity interaction (Nudix + Nucleotide phosphohydrolase panel (enzymatic assay)) EUB0002332a NUDT1. On the set-up: recommended concentration 1 uM. To be noted: at 100 µM.
The target in data set [7] is Muscarinic acetylcholine receptor M1 (Homo sapiens, UniProt P11229). Nature of the data set: Selectivity interaction (Membrane binding assay) EUB0002488aCl CHRM1. Details: recommended concentration 1 uM.
Data set [8] has as its target Transcription initiation factor TFIID subunit 1 (Homo sapiens, UniProt P21675). Nature of the data set: Selectivity interaction (BROMOscan (Eurofins)) EUB0002282a TAF1. Details: recommended concentration 1 uM.
Data set [9] deals with T1, Bromodomain-containing protein 9 (Homo sapiens, UniProt Q9H8M2).
T1 sequence (Q9H8M2 whole entry): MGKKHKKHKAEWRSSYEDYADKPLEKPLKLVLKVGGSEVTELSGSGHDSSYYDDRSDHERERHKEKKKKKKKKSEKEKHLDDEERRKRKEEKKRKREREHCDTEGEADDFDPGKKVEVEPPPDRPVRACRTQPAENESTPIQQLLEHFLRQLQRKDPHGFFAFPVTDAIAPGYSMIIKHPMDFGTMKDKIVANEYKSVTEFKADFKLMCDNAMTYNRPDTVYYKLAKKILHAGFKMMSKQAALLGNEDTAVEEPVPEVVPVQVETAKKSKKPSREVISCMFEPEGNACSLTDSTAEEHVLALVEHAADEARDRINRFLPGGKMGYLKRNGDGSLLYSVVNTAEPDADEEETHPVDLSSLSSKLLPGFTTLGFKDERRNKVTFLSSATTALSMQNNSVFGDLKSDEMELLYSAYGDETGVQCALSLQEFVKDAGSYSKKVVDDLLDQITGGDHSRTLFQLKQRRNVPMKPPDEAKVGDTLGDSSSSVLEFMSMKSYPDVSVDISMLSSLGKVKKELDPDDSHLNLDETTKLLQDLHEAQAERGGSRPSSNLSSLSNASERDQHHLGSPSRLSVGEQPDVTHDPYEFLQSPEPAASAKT
As to the kind of experiment: Selectivity interaction (BROMOscan (Eurofins)) EUB0002282a BRD9. On the set-up: recommended concentration 1 uM.

A further data set addresses CREB-binding protein (Homo sapiens, UniProt Q92793). As to the kind of experiment: Selectivity interaction (BROMOscan (Eurofins)) EUB0002282a CREBBP. Details: recommended concentration 1 uM.
Data set [10] deals with T2, Histone acetyltransferase p300 (Homo sapiens, UniProt Q09472). Nature of the data set: Selectivity interaction (BROMOscan (Eurofins)) EUB0002282a EP300. On the set-up: recommended concentration 1 uM.
The target of data set [11] is Bromodomain adjacent to zinc finger domain protein 2A (Homo sapiens, UniProt Q9UIF9). Nature of the data set: Selectivity interaction (BROMOscan (Eurofins)) EUB0002282a BAZ2A. On the set-up: recommended concentration 1 uM.
The target of data set [12] is Bromodomain adjacent to zinc finger domain protein 2B (Homo sapiens, UniProt Q9UIF8). As to the kind of experiment: Selectivity interaction (BROMOscan (Eurofins)) EUB0002282a BAZ2B. On the set-up: recommended concentration 1 uM.
The target in data set [13] is Chromatin remodeling regulator CECR2 (Homo sapiens, UniProt Q9BXF3). As to the kind of experiment: Selectivity interaction (BROMOscan (Eurofins)) EUB0002282a CECR2. Details: recommended concentration 1 uM.
The target of data set [14] is Bromodomain testis-specific protein (Homo sapiens, UniProt Q58F21). Nature of the data set: Selectivity interaction (BROMOscan (Eurofins)) EUB0002282a BRDT. On the set-up: recommended concentration 1 uM.
For a further data set, the target named is Peregrin (Homo sapiens, UniProt P55201). Nature of the data set: Selectivity interaction (BROMOscan (Eurofins)) EUB0002282a BRPF1. On the set-up: recommended concentration 1 uM.
Data set [15] concerns the target T2, Histone acetyltransferase p300. Nature of the data set: (§2) Selectivity interaction (BROMOscan (DiscoverX)) EUB0002298a EP300. Details: recommended concentration 1 uM.
Data set [16] has the same target. The description is as §2. On the set-up: recommended concentration 1 uM. The source holds these as a separate data set.
Data set [17] shares this target. The description is as §2. Details: recommended concentration 1 uM. This is another data set of the same source.
For a further data set, the target named is Cathepsin S (Homo sapiens, UniProt P25774). Nature of the data set: Selectivity interaction (Enzymatic assay) EUB0002529a CTSS. Details: recommended concentration 1 uM.
The target in a further data set is P2X purinoceptor 3 (Homo sapiens, UniProt P56373). As to the kind of experiment: Selectivity interaction (Patch-clamp recording assay) EUB0002673aCl P2RX3. On the set-up: recommended concentration 1 uM.
In data set [18] the target is T3, Delta-type opioid receptor (Homo sapiens, UniProt P41143). As to the kind of experiment: (§3) Selectivity interaction (Panel of neurotransmitter receptors, receptors, ion channels/regulatory sites) EUB0002781aCl OPRD1. On the set-up: recommended concentration 1 uM.
In data set [19] the target is Kappa-type opioid receptor (Homo sapiens, UniProt P41145). Nature of the data set: Selectivity interaction (Panel of neurotransmitter receptors, receptors, ion channels/regulatory sites) EUB0002781aCl OPRK1. On the set-up: recommended concentration 1 uM.
In data set [20] the target is T3, Delta-type opioid receptor. The data set is described as §3. Details: recommended concentration 1 uM. This is another data set of the same source.
Data set [21] addresses T4, Mu-type opioid receptor (Homo sapiens, UniProt P35372). As to the kind of experiment: (§4) Selectivity interaction (Panel of neurotransmitter receptors, receptors, ion channels/regulatory sites) EUB0002781aCl OPRM1. On the set-up: recommended concentration 1 uM.
Data set [22] deals with T4, Mu-type opioid receptor. The description is as §4. On the set-up: recommended concentration 1 uM. The source holds these as a separate data set.
The target in data set [23] is Voltage-dependent L-type calcium channel subunit alpha-1S (Homo sapiens) (UniProt Q13698). As to the kind of experiment: Selectivity interaction (Panel of neurotransmitter receptors, receptors, ion channels/regulatory sites) EUB0002781aCl CACNA1S. Details: recommended concentration 1 uM. To be noted: at 10 µM.
The target of data set [24] is cGMP-inhibited 3',5'-cyclic phosphodiesterase 3B (Homo sapiens, UniProt Q13370). Nature of the data set: Selectivity interaction (Enzymatic assay) EUB0002598a PDE3B. Details: recommended concentration 1 uM.
The target in data set [25] is T5, Chromobox protein homolog 2 (Homo sapiens, UniProt Q14781).
T5 sequence (Q14781 whole entry): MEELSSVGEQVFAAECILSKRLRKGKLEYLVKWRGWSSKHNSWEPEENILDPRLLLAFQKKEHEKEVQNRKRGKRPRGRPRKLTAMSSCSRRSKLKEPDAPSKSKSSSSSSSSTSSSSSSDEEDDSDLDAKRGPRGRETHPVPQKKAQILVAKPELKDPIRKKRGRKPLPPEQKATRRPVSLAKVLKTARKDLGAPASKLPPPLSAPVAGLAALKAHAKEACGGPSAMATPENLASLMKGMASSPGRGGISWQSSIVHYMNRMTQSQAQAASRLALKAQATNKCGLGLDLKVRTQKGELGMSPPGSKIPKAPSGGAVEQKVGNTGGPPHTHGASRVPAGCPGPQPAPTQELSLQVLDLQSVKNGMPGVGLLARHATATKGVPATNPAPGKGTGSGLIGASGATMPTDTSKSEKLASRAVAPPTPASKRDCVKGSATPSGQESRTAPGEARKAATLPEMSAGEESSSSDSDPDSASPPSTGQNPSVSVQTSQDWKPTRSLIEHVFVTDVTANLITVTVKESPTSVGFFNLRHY
Nature of the data set: (§5) Selectivity interaction (Fluorescence polarisation assay (chromodomain family)) EUB0002326a CBX2. On the set-up: recommended concentration 1 uM.

Data set [26] addresses Chromobox protein homolog 7 (Homo sapiens, UniProt O95931). Nature of the data set: Selectivity interaction (Fluorescence polarisation assay (chromodomain family)) EUB0002326a CBX7. On the set-up: recommended concentration 1 uM.
Data set [27] has as its target T5, Chromobox protein homolog 2. The description is as §5. On the set-up: recommended concentration 1 uM. This is another data set of the same source.
Data set [28] deals with T6, Histone deacetylase 8 (Homo sapiens, UniProt Q9BY41).
T6 sequence (Q9BY41 whole entry): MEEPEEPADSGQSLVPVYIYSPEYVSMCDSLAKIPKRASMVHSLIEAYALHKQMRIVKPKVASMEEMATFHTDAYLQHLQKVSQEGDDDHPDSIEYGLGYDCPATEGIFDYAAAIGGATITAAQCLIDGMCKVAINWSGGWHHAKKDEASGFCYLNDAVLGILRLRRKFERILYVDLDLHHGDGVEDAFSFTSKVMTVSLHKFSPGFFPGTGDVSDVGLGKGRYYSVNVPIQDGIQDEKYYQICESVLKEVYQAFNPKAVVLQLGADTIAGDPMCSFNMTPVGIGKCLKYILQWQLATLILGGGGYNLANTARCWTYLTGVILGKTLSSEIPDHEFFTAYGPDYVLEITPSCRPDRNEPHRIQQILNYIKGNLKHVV

Data set [29] has as its target T6, Histone deacetylase 8. This is another data set of the same source.
For data set [30], the target named is T6, Histone deacetylase 8. This is another data set of the same source.

T2 sequence (Q09472 whole entry, the tested form may be a part): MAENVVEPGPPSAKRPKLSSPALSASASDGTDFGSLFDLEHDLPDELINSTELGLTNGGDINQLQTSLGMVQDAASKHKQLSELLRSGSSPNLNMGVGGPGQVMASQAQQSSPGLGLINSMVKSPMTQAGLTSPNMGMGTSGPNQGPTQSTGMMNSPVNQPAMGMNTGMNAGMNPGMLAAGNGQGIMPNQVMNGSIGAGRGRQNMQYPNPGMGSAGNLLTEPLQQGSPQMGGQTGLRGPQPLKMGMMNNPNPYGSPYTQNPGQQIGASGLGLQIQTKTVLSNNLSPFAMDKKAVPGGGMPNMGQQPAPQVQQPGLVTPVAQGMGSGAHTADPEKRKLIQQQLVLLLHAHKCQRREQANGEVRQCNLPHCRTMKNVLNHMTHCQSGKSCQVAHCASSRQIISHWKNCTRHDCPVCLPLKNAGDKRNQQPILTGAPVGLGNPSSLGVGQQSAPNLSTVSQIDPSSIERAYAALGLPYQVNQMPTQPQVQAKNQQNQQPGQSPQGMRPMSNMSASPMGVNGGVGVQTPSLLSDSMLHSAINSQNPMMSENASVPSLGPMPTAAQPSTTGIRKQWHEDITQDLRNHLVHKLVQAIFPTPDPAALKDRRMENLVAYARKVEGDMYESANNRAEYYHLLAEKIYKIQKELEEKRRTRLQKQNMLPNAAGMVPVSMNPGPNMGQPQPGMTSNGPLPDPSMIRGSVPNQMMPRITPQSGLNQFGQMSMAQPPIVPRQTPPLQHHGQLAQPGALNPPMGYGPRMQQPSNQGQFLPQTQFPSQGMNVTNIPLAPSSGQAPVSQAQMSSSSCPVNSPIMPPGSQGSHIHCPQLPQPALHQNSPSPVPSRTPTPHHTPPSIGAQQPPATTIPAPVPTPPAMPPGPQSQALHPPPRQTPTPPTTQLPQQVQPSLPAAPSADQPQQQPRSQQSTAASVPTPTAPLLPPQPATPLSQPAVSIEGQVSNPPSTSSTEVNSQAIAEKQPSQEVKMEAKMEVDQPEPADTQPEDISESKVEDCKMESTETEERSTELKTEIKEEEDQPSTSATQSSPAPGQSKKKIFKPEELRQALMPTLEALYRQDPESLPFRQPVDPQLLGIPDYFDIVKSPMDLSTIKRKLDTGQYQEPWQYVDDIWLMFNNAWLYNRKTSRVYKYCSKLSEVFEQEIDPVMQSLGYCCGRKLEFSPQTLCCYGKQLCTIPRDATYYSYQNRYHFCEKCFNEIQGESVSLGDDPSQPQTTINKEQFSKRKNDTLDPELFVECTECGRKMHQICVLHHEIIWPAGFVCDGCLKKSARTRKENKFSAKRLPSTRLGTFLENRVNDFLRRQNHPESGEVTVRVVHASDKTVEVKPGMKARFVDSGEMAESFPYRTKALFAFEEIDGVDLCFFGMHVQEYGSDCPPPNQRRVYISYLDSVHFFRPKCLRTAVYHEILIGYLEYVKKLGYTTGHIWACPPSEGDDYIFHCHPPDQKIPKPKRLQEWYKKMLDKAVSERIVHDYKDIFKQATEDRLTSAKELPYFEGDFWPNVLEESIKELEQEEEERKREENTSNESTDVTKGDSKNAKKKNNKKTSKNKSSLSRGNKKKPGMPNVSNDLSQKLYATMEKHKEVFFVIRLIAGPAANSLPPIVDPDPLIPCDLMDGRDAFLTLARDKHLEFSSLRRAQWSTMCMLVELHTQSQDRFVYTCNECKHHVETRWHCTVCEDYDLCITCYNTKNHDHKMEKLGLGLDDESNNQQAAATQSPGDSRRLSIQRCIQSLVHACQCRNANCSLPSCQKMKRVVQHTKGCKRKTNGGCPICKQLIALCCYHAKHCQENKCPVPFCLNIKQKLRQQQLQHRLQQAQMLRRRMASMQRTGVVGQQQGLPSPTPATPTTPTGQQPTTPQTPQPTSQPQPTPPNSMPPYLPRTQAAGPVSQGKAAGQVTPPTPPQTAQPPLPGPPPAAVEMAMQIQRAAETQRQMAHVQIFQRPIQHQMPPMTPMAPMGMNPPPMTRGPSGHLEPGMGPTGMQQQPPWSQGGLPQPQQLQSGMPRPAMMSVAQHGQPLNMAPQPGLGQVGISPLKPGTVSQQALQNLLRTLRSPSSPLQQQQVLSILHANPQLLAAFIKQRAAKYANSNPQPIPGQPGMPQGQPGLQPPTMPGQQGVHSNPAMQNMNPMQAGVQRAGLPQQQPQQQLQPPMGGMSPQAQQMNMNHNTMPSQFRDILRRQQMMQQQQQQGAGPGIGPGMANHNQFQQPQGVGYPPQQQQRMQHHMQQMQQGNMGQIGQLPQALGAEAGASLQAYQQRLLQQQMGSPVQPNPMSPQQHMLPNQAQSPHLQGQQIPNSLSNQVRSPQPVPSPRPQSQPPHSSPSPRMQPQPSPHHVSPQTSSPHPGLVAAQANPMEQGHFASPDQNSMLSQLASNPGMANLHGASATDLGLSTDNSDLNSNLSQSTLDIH
T3 sequence (P41143 whole entry): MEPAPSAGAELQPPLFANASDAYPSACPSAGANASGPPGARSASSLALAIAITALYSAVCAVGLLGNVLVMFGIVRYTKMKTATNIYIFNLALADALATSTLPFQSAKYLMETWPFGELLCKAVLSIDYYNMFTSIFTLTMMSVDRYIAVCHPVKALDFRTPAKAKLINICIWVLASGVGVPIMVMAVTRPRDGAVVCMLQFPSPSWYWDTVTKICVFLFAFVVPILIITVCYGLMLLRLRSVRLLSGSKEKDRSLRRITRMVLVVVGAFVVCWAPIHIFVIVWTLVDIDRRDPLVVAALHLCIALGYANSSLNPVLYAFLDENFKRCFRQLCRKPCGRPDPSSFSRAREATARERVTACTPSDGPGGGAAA
T4 sequence (P35372 whole entry): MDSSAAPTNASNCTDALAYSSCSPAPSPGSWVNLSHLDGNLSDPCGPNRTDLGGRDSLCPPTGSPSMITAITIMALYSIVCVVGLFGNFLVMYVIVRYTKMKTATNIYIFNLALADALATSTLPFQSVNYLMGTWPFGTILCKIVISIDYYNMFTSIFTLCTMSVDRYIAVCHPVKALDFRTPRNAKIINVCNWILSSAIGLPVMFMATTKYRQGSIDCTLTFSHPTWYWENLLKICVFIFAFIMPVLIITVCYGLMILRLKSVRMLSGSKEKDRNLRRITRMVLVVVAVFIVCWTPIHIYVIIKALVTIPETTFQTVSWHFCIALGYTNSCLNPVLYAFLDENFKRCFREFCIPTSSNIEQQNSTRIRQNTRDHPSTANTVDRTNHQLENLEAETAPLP
Chain of 5-hydroxytryptamine receptor 1B (Homo sapiens) (P28222 whole entry): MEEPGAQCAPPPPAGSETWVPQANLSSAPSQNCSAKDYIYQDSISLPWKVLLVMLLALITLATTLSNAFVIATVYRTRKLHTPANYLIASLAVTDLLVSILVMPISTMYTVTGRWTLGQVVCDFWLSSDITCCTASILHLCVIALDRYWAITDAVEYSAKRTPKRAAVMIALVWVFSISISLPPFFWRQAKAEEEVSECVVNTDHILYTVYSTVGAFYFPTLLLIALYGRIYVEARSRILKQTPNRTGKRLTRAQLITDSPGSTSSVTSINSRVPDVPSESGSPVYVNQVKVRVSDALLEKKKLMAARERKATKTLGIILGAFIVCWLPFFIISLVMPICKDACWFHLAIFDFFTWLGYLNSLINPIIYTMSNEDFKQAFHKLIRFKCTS
Chain of Chromatin remodeling regulator CECR2 (Q9BXF3 whole entry): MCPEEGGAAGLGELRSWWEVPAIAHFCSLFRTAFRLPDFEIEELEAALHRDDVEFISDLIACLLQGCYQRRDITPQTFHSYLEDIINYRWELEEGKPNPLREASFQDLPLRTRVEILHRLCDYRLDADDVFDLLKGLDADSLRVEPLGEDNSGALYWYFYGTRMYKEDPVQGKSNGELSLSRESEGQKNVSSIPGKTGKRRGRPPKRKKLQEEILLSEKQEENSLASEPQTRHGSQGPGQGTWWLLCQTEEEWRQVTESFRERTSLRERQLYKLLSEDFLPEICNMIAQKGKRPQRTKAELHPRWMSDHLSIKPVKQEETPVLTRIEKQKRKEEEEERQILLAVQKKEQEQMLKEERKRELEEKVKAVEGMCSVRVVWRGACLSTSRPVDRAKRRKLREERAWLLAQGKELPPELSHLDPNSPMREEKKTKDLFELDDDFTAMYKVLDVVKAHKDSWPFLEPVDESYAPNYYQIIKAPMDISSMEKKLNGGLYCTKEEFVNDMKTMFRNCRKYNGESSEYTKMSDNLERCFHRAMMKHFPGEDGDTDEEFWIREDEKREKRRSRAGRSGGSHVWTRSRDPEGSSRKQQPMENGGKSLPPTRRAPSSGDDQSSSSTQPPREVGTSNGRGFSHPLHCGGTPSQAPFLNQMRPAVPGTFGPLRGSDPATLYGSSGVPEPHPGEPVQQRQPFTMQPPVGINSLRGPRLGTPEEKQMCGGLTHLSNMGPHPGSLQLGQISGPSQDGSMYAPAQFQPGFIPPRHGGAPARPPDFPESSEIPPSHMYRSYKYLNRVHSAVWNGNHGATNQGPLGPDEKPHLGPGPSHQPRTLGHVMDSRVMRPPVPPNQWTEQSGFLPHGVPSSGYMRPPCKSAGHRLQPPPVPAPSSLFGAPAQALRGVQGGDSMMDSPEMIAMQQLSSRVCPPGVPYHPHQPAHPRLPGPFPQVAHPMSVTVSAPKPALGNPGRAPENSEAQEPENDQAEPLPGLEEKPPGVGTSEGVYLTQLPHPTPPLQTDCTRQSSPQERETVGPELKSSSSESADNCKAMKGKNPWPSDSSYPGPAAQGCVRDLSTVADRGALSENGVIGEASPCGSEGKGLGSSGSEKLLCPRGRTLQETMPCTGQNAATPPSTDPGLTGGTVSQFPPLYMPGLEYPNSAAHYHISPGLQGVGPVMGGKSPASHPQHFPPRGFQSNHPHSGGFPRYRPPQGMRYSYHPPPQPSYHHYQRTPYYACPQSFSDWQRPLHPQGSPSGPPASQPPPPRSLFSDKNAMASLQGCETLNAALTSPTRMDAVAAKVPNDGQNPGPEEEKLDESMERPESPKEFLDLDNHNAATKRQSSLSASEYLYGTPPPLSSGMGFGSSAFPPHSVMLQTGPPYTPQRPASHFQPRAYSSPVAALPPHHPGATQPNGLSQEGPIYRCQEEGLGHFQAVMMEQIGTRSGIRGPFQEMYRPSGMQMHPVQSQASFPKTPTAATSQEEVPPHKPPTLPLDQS

`Cn1c(=O)c2c(nc(N3CCNCC3)n2Cc2nnc(-c3ccc(Cl)c(Cl)c3)o2)n(C)c1=O`: the Inhibition of control was over 50% in data set [1]; over 50% in data set [2]; over 50% in data set [3]; 50% in data set [4]; over 50% in [5]. For the same compound, the Enzyme activity in [6] was under 20%.

As for `CN1[C@@H]2CC[C@H]1C[C@@H](OC(c1ccc(F)cc1)c1ccc(F)cc1)C2`, the affinity in [7] corresponds to a Ki of 11.6 nM.

As to `Cc1cc(-c2ccc3nc(C4CCOCC4)n(CCOC(F)(F)F)c3c2)cn(C)c1=O`, the equilibrium dissociation constant (Kd) in data set [8] was found to be 110 nM; in data set [9], 64 nM; at CREB-binding protein, 23 nM; in data set [10], 25 nM; in data set [11], 140 nM; in [12] it was 190 nM. Besides, the dissociation constant Kd was found to be 38 nM in data set [13], 25 nM in [14] and 100 nM on Peregrin.

Take `CCCOc1ccc(CCc2nc3cc(-c4c(C)noc4C)ccc3n2CCN2CCOCC2)cc1`: the IC50 in [15], in data set [16] and in data set [17] was 363 nM throughout.

On Cathepsin S, `Cn1nc(C(C)(C)C)cc1C(=O)NC(Cc1cccc(Cl)c1)C(=O)NCC#N` (centres undefined) came in with an inhibitory constant (Ki) of 850 nM.

In the case of `CCCCOc1c(OC)cc(C(=O)NCC2(N(C)C)CCOCC2)cc1OC`, the half-inhibitory concentration (IC50) on P2X purinoceptor 3 is 870 nM.

With `N=C(N)NC(=O)c1cnn(-c2cccc3ncccc23)c1C1CC1`, the inhibition constant Ki in data set [18] came out at 238 nM; in [19] it was 213 nM; in data set [20] it was 213 nM; on Mu-type opioid receptor [21], 60 nM; on Mu-type opioid receptor [22], 213 nM. Also, the inhibition in [23] was determined as 62%.

In the case of `CC(C)C(=O)c1c(C(C)C)nn2ccccc12` [IBUDILAST], the IC50 in [24] worked out at 2700 nM. That is a single-digit micromolar value.

On to `C#CCNC(=O)[C@H](CO)NC(=O)[C@H](CCCCN(CC)CC)NC(=O)[C@H](NC(=O)[C@@H](NC(=O)c1ccc(Oc2ccccc2)cc1)C1CCCC1)[C@@H](C)CC` ({Benzoyl(4-OPh)}-[Gly(cPent)][d(aIle)][Lys(Et2)]S-{NH(propargyl)}), for which the Kd was 4600 nM in data set [25], over 16000 nM in data set [26] and 4600 nM in data set [27].

For the compound `CN(C)Cc1ccc(S(=O)(=O)n2ccc(/C=C/C(=O)NO)c2)cc1`, the IC50 against Histone deacetylase 8 [28], on Histone deacetylase 8 [29] and against Histone deacetylase 8 [30] was 877 nM each time.
